From US12692241B2, “Substituted triazine compound” (Nico Therapeutics, Inc., priority 2021, dated 2026)
Where a name gives a salt, the structure may show the parent alone. Read-outs that look alike come from different tables or passages of the source.

Tested on: IL-1β production in THP-1 cells (LPS and ATP; NLRP3 inflammasome activation)
Test: THP-1 IL-1β production inhibitory test
Format: cell-based, human
Details: read-out: IC50 (nM), IL-1β production
Method: THP-1 IL-1β Production Inhibitory Test
To THP-1 cells, 50 ng/mL PMA (phorbol myristate acetate, SIGMA, P1585) was added at 37° C. and then the cells were cultured for 2 days. […] The cells were cultured at 37° C. for 15 minutes. LPS (lipopolysaccharide, SIMGA, L2880) and ATP (adenosine triphosphate, SIGMA, A2383) were added such that the final concentrations of them became 50 ng/mL and 5 mM, respectively. The cells were cultured at 37° C. for 2 hours. The supernatant was collected and the concentration of IL-1β was measured by ELISA (DuoSet ELISA human IL-1β, R&D Systems, DY201). The concentration of IL-1β was plotted against the logarithm of the concentration of the test compound, and the IC50 value was calculated by sigmoidal Emax model nonlinear regression analysis.

[1] = Homo sapiens, THP-1, 2 h, PMA-differentiated THP-1 cells, LPS 50 ng/mL and ATP 5 mM, 2 hours, ELISA

Structure (SMILES): Cc1nc(N[C@@H]2CN(C)C[C@H]2O)nnc1-c1ccc(C(F)(F)F)cc1O [Example 162]
- IC50 [1]: 350 nM

Structure (SMILES): Cc1cc(C(F)(F)F)cc(O)c1-c1nnc(N[C@@H]2CCCC[C@H]2O)nc1C [Example 165]
- IC50 [1]: 6.7 nM

Structure (SMILES): Cc1nc(N[C@@H]2CCCC[C@H]2O)nnc1-c1ccc(F)cc1O [Example 53]
- IC50 [1]: 63 nM

Structure (SMILES): Cc1nc(N[C@H]2C[C@@](C)(O)C2)nnc1-c1ccc(Cl)cc1O [Example 49]
- IC50 [1]: 14 nM

Structure (SMILES): Cc1nc(NCc2cccnn2)nnc1-c1ccc(C(F)(F)F)cc1O [Example 28]
- IC50 [1]: 630 nM

Structure (SMILES): Cc1nc(Nc2cnn(CCO)c2)nnc1-c1ccc(C(F)(F)F)cc1O [Example 89]
- IC50 [1]: 230 nM

Structure (SMILES): Cc1ccc(-c2nnc(N[C@H]3C[C@@](C)(O)C3)nc2C)c(O)c1 [Example 51]
- IC50 [1]: 33 nM

Structure (SMILES): Cc1nc(N[C@@H]2CCOC[C@H]2O)nnc1-c1ccc(C2CC2)cc1O [Example 78]
- IC50 [1]: 27 nM

Structure (SMILES): Cc1nc(N[C@H]2[C@@H]3COC[C@@H]32)nnc1-c1ccc(C(F)(F)F)cc1O [Example 24]
- IC50 [1]: 40 nM

Structure (SMILES): Cc1nc(N[C@@H]2CCC[C@H](O)C2)nnc1-c1ccc(C2CC2)cc1O [Example 83]
- IC50 [1]: 32 nM

Structure (SMILES): Cc1nc(N[C@H]2CCCC[C@@H]2O)nnc1-c1ccc(C(F)(F)F)cc1O [Example 41]
- IC50 [1]: 310 nM

Structure (SMILES): Cc1nc(N[C@@H]2COC[C@H]2O)nnc1-c1ccc(C(F)(F)F)cc1O [Example 16]
- IC50 [1]: 88 nM

Structure (SMILES): Cc1nc(N[C@H]2CCNC2=O)nnc1-c1ccc(C(F)(F)F)cc1O [Example 44]
- IC50 [1]: 7 nM

Structure (SMILES): Cc1nc(NC[C@H](C)CCN)nnc1-c1ccc(C(F)(F)F)cc1O [Example 136]
- IC50 [1]: 61 nM

Structure (SMILES): Cc1nc(N[C@H]2CCCNC2)nnc1-c1ccc(C(F)(F)F)cc1O [Example 137]
- IC50 [1]: 1500 nM

Structure (SMILES): CC(C)c1nc(NC[C@@H](C)O)nnc1-c1ccc(C(F)(F)F)cc1O [Example 129]
- IC50 [1]: 55 nM

Structure (SMILES): Cc1nc(N[C@@H]2C[C@H]3C[C@@H]2[C@@H](O)C3)nnc1-c1ccc(C(F)(F)F)cc1O [Example 39]
- IC50 [1]: 19 nM

Structure (SMILES): Cc1nc(Nc2cnn(C)c2)nnc1-c1ccc(C(F)(F)F)cc1O [Example 93]
- IC50 [1]: 130 nM

Structure (SMILES): Cc1nc(N[C@@H]2CCCC[C@@]2(C)O)nnc1-c1ccc(Cl)cc1O [Example 54]
- IC50 [1]: 7.3 nM

Structure (SMILES): Cc1nc(N[C@H]2C[C@H](CO)C2)nnc1-c1ccc(C(F)(F)F)cc1O [Example 99]
- IC50 [1]: 9.4 nM

Structure (SMILES): Cc1nc(N[C@H]2CC[C@H](O)CC2)nnc1-c1ccc(C(F)(F)F)cc1O [Example 26]
- IC50 [1]: 62 nM

Structure (SMILES): Cc1nc(Nc2cn[nH]c2)nnc1-c1ccc(C(F)(F)F)cc1O [Example 149, 2-{5-methyl-3-[(1H-pyrazol-4-yl)amino]-1,2,4-triazin-6-yl}-5-(trifluoromethyl)phenol]
- IC50 [1]: 23 nM

Structure (SMILES): Cc1ccc(-c2nnc(N[C@H]3C[C@@](C)(O)C3)nc2C2CC2)c(O)c1 [Example 119]
- IC50 [1]: 42 nM

Structure (SMILES): Cc1nc(N[C@H]2C[C@@H](CO)C2)nnc1-c1ccc(C(F)(F)F)cc1O [Example 100]
- IC50 [1]: 6.4 nM

Structure (SMILES): Cc1nc(N[C@@H]2CCCC[C@H]2N)nnc1-c1ccc(C(F)(F)F)cc1O [Example 188, 2-(3-{[(1R,2R)-2-aminocyclohexyl]amino}-5-methyl-1,2,4-triazin-6-yl)-5-(trifluoromethyl)phenol dihydrochloride]
- IC50 (PMA-differentiated THP-1 cells, LPS 50 ng/mL and ATP 5 mM, 2 hours, ELISA, dihydrochloride): 21 nM

Structure (SMILES): O=C1NCC[C@@H]1Nc1nnc(-c2ccc(C(F)(F)F)cc2O)c(C2CC2)n1 [Example 127]
- IC50 [1]: 10 nM

Structure (SMILES): Cc1nc(N[C@@H]2CCNC2=O)nnc1-c1ccc(C(F)(F)F)cc1O [Example 43]
- IC50 [1]: 19 nM

Structure (SMILES): Cc1nc(N[C@@H]2CCCC[C@H]2O)nnc1-c1ccc(OC(F)F)cc1O [Example 186, 5-(difluoromethoxy)-2-(3-{[(1R,2R)-2-hydroxycyclohexyl]amino}-5-methyl-1,2,4-triazin-6-yl)phenol monohydrochloride]
- IC50 (Homo sapiens, THP-1, 2 h): 11 nM

Structure (SMILES): Oc1cc(C(F)(F)F)ccc1-c1nnc(N[C@@H]2CCC[C@H]2O)nc1C1CC1 [Example 110]
- IC50 [1]: 15 nM

Structure (SMILES): Cc1nc(N[C@@H]2CC[C@@H](C#N)C2)nnc1-c1ccc(C(F)(F)F)cc1O [Example 103]
- IC50 [1]: 30 nM

Structure (SMILES): Cc1nc(N[C@@H]2CCC[C@H](O)C2)nnc1-c1ccc(Cl)cc1O [Example 82]
- IC50 [1]: 30 nM

Structure (SMILES): Cc1nc(N[C@H]2C[C@@](C)(O)C2)nnc1-c1ccc(C2CC2)cc1O [Example 77]
- IC50 [1]: 67 nM

Structure (SMILES): Cc1nc(N[C@@H]2CCOC[C@H]2O)nnc1-c1ccc(C(F)(F)F)cc1O [Example 11]
- IC50 [1]: 15 nM

Structure (SMILES): Cc1nc(N[C@H]2CCN(C)C2=O)nnc1-c1ccc(C(F)(F)F)cc1O [Example 74]
- IC50 [1]: 620 nM

Structure (SMILES): Cc1ccc(-c2nnc(N[C@@H]3CCOC[C@H]3O)nc2C)c(O)c1 [Example 52]
- IC50 [1]: 21 nM

Structure (SMILES): Cc1nc(NC[C@@H](C)N)nnc1-c1ccc(C(F)(F)F)cc1O [Example 148, 2-(3-{[(2R)-2-aminopropyl]amino}-5-methyl-1,2,4-triazin-6-yl)-5-(trifluoromethyl)phenol monohydrochloride]
- IC50 (Homo sapiens, THP-1, 2 h): 150 nM

Structure (SMILES): Cc1nc(Nc2cc[nH]n2)nnc1-c1ccc(C(F)(F)F)cc1O [Example 150]
- IC50 [1]: 6.8 nM

Structure (SMILES): Cc1nc(NC[C@@H](C)O)nnc1-c1ccc(C(F)(F)F)cc1O [Example 4]
- IC50 [1]: 35 nM

Structure (SMILES): COc1ccc(-c2nnc(N[C@@H]3CCC[C@H](O)C3)nc2C)c(O)c1 [Example 168]
- IC50 [1]: 26 nM

Structure (SMILES): CC(=O)NC[C@H]1C[C@H](Nc2nnc(-c3ccc(C(F)(F)F)cc3O)c(C)n2)C1 [Example 106]
- IC50 [1]: 26 nM

Structure (SMILES): Cc1nc(NC[C@@H](C)O)nnc1-c1ccc(C2CC2)cc1O [Example 56]
- IC50 [1]: 12 nM

Structure (SMILES): Cc1ccc(-c2nnc(N[C@H]3CCNC3=O)nc2C)c(O)c1 [Example 71]
- IC50 [1]: 8.2 nM

Structure (SMILES): Cc1ccc(-c2nnc(N[C@@H]3CCOC[C@H]3O)nc2C2CC2)c(O)c1 [Example 114]
- IC50 [1]: 33 nM

Structure (SMILES): Cc1nc(NC[C@H](C)CO)nnc1-c1ccc(C(F)(F)F)cc1O [Example 2]
- IC50 [1]: 32 nM

Structure (SMILES): Cc1nc(NCC(C)(C)O)nnc1-c1ccc(C(F)(F)F)cc1O [Example 85]
- IC50 [1]: 57 nM

Structure (SMILES): CC(=O)N[C@@H]1CCCC[C@H]1Nc1nnc(-c2ccc(C(F)(F)F)cc2O)c(C)n1 [Example 152, N-[(1R,2R)-2-({6-[2-hydroxy-4-(trifluoromethyl)phenyl]-5-methyl-1,2,4-triazin-3-yl}amino)cyclohexyl]acetamide]
- IC50 [1]: 22 nM

Structure (SMILES): Cc1nc(Nc2ccn(CCO)n2)nnc1-c1ccc(C(F)(F)F)cc1O [Example 90]
- IC50 [1]: 53 nM

Structure (SMILES): Cc1nc(N[C@H]2CCC(F)(F)C2)nnc1-c1ccc(C(F)(F)F)cc1O [Example 7]
- IC50 [1]: 28 nM

Structure (SMILES): Cc1nc(NCc2cc[nH]n2)nnc1-c1ccc(C(F)(F)F)cc1O [Example 94]
- IC50 [1]: 70 nM

Structure (SMILES): Oc1cc(C(F)(F)F)ccc1-c1nnc(N[C@@H]2CCCC[C@H]2O)nc1C1CC1 [Example 109]
- IC50 [1]: 17 nM

Structure (SMILES): COc1ccc(-c2nnc(N[C@@H]3CCCC[C@H]3O)nc2C)c(O)c1 [Example 184, 2-(3-{[(1R,2R)-2-hydroxycyclohexyl]amino}-5-methyl-1,2,4-triazin-6-yl)-5-methoxyphenol monohydrochloride]
- IC50 (Homo sapiens, THP-1, 2 h): 5.8 nM

Structure (SMILES): Cc1nc(NC2CCCCC2)nnc1-c1ccc(C(F)(F)F)cc1O [Example 6]
- IC50 [1]: 26 nM

Structure (SMILES): Cc1nc(NC[C@@H]2CCCNC2)nnc1-c1ccc(C(F)(F)F)cc1O [Example 135]
- IC50 [1]: 450 nM

Structure (SMILES): Cc1nc(N[C@@H]2CCCC[C@H]2N)nnc1-c1ccc(OC(F)(F)F)cc1O [Example 145]
- IC50 [1]: 39 nM

Structure (SMILES): CC(=O)N1CCO[C@@H](CNc2nnc(-c3ccc(C(F)(F)F)cc3O)c(C)n2)C1 [Example 155]
- IC50 [1]: 370 nM

Structure (SMILES): C[C@@H](O)CNc1nnc(-c2ccc(C(F)(F)F)cc2O)c(C(F)(F)F)n1 [Example 130]
- IC50 [1]: 260 nM

Structure (SMILES): Cc1nc(N[C@@H]2CCCNC2=O)nnc1-c1ccc(C(F)(F)F)cc1O [Example 42]
- IC50 [1]: 28 nM

Structure (SMILES): Cc1nc(N[C@@H]2CCC[C@H](O)C2)nnc1-c1ccc(OC(F)(F)F)cc1O [Example 84]
- IC50 [1]: 38 nM

Structure (SMILES): Cc1ccc(-c2nnc(N[C@@H]3CCCC[C@H]3O)nc2C)c(O)c1 [Example 37]
- IC50 [1]: 11 nM

Structure (SMILES): Cc1nc(N[C@@H]2CCCN(CC(=O)O)C2)nnc1-c1ccc(C(F)(F)F)cc1O [Example 183]
- IC50 [1]: 150 nM

Structure (SMILES): Cc1ccc(-c2nnc(N[C@@H]3CCC[C@H](O)C3)nc2C)c(O)c1 [Example 81]
- IC50 [1]: 42 nM

Structure (SMILES): Cc1nc(NCC(C)(C)CO)nnc1-c1ccc(C(F)(F)F)cc1O [Example 9]
- IC50 [1]: 59 nM

Structure (SMILES): Cc1nc(NC2(CO)COC2)nnc1-c1ccc(C(F)(F)F)cc1O [Example 29]
- IC50 [1]: 84 nM

Structure (SMILES): Cc1nc(NCC2(CO)CCC2)nnc1-c1ccc(C(F)(F)F)cc1O [Example 15]
- IC50 [1]: 100 nM

Structure (SMILES): Cc1nc(NC2(CO)CCC2)nnc1-c1ccc(C(F)(F)F)cc1O [Example 23]
- IC50 [1]: 23 nM

Structure (SMILES): Cc1nc(N[C@@H]2CCCC[C@@]2(C)O)nnc1-c1ccc(C(F)(F)F)cc1O [Example 47]
- IC50 [1]: 8.8 nM

Structure (SMILES): Cc1nc(N[C@H]2CCC[C@@H](O)C2)nnc1-c1ccc(C(F)(F)F)cc1O [Example 167]
- IC50 [1]: 580 nM

Structure (SMILES): Cc1nc(NCCC2(CN)CCC2)nnc1-c1ccc(C(F)(F)F)cc1O [Example 139]
- IC50 [1]: 690 nM

Structure (SMILES): O=C1NCC[C@@H]1Nc1nnc(-c2ccc(Cl)cc2O)c(C2CC2)n1 [Example 125]
- IC50 [1]: 33 nM

Structure (SMILES): Cc1nc(N[C@@H]2CCCCC[C@H]2O)nnc1-c1ccc(C(F)(F)F)cc1O [Example 76]
- IC50 [1]: 16 nM

Structure (SMILES): C[C@@]1(O)CCCC[C@H]1Nc1nnc(-c2ccc(OC(F)(F)F)cc2O)c(C2CC2)n1 [Example 124]
- IC50 [1]: 37 nM
